Data reported in ChEMBL document CHEMBL3046940, “Microwave-assisted synthesis of novel 4H-chromene derivatives bearing 2-aryloxyquinoline and their antimicrobial activity assessment” (2013).
In brackets after ≈: the same amount, converted by molar mass.

Columns and labels:
Format in all cases: functional
Salmonella typhi = assay: Antimicrobial activity against Salmonella enterica subsp. enterica serovar Typhi MTCC 98 assessed as growth inhibition after 24-48 hr by NCCLS broth microdilution method
Bacillus subtilis = assay: Antimicrobial activity against Bacillus subtilis MTCC 441 assessed as growth inhibition after 24-48 hr by NCCLS broth microdilution method
Aspergillus fumigatus = assay: Antimicrobial activity against Aspergillus fumigatus MTCC 3008 assessed as growth inhibition after 24-48 hr by NCCLS broth microdilution method
Candida albicans = assay: Antimicrobial activity against Candida albicans MTCC 227 assessed as growth inhibition after 24-48 hr by NCCLS broth microdilution method
Streptococcus pneumoniae = assay: Antimicrobial activity against Streptococcus pneumoniae MTCC 1936 assessed as growth inhibition after 24-48 hr by NCCLS broth microdilution method
Clostridium tetani = assay: Antimicrobial activity against Clostridium tetani MTCC 449 assessed as growth inhibition after 24-48 hr by NCCLS broth microdilution method
Vibrio cholerae = assay: Antimicrobial activity against Vibrio cholerae MTCC 3906 assessed as growth inhibition after 24-48 hr by NCCLS broth microdilution method
Escherichia coli = assay: Antimicrobial activity against Escherichia coli MTCC 443 assessed as growth inhibition after 24-48 hr by NCCLS broth microdilution method

Row | Molecule | MIC (Salmonella typhi) | MIC (Bacillus subtilis) | MIC (Aspergillus fumigatus) | MIC (Candida albicans) | MIC (Streptococcus pneumoniae) | MIC (Clostridium tetani) | MIC (Vibrio cholerae) | MIC (Escherichia coli)
1 | COc1ccc2nc(Oc3ccc(F)cc3)c(C3C(C#N)=C(N)OC4=C3C(=O)CC(C)(C)C4)cc2c1 (stereo not given) | 100 µg/mL (≈ 206 µM) | 200 µg/mL (≈ 412 µM) | 500 µg/mL (≈ 1030 µM) | 500 µg/mL (≈ 1030 µM) | 150 µg/mL (≈ 309 µM) | 200 µg/mL (≈ 412 µM) | 250 µg/mL (≈ 515 µM) | 62.5 µg/mL (≈ 129 µM)
2 | N#CC1=C(N)OC2=C(C(=O)CCC2)C1c1cc2ccccc2nc1Oc1ccc(F)cc1 (stereo not given) | 200 µg/mL (≈ 468 µM) | 250 µg/mL (≈ 585 µM) | > 1000 µg/mL | 250 µg/mL (≈ 585 µM) | 250 µg/mL (≈ 585 µM) | 500 µg/mL (≈ 1170 µM) | 500 µg/mL (≈ 1170 µM) | 100 µg/mL (≈ 234 µM)
3 | N#CC1=C(N)OC2=C(C(=O)CCC2)C1c1cc2ccccc2nc1Oc1ccccc1 (stereo not given) | 250 µg/mL (≈ 611 µM) | 250 µg/mL (≈ 611 µM) | 1000 µg/mL (≈ 2440 µM) | 500 µg/mL (≈ 1220 µM) | 250 µg/mL (≈ 611 µM) | 250 µg/mL (≈ 611 µM) | 250 µg/mL (≈ 611 µM) | 100 µg/mL (≈ 244 µM)
4 | COc1ccc(Oc2nc3ccc(OC)cc3cc2C2C(C#N)=C(N)OC3=C2C(=O)CC(C)(C)C3)cc1 (stereo not given) | 250 µg/mL (≈ 502 µM) | 1000 µg/mL (≈ 2010 µM) | 500 µg/mL (≈ 1000 µM) | 250 µg/mL (≈ 502 µM) | 1000 µg/mL (≈ 2010 µM) | 250 µg/mL (≈ 502 µM) | 250 µg/mL (≈ 502 µM) | 250 µg/mL (≈ 502 µM)
5 | Cc1ccc(Oc2nc3ccccc3cc2C2C(C#N)=C(N)OC3=C2C(=O)CCC3)cc1 (stereo not given) | 500 µg/mL (≈ 1180 µM) | 1000 µg/mL (≈ 2360 µM) | 500 µg/mL (≈ 1180 µM) | 500 µg/mL (≈ 1180 µM) | 500 µg/mL (≈ 1180 µM) | 500 µg/mL (≈ 1180 µM) | 200 µg/mL (≈ 472 µM) | 250 µg/mL (≈ 590 µM)
6 | COc1ccc(Oc2nc3ccccc3cc2C2C(C#N)=C(N)OC3=C2C(=O)CCC3)cc1 (stereo not given) | 250 µg/mL (≈ 569 µM) | 200 µg/mL (≈ 455 µM) | > 1000 µg/mL | 1000 µg/mL (≈ 2280 µM) | 100 µg/mL (≈ 228 µM) | 1000 µg/mL (≈ 2280 µM) | 100 µg/mL (≈ 228 µM) | 150 µg/mL (≈ 341 µM)
7 | O=C(O)c1cn(C2CC2)c2cc(N3CCNCC3)c(F)cc2c1=O [CIPROFLOXACIN] | 25 µg/mL (≈ 75.4 µM) | – | – | – | 50 µg/mL (≈ 151 µM) | – | 25 µg/mL (≈ 75.4 µM) | 25 µg/mL (≈ 75.4 µM)
8 | COc1ccc2nc(Oc3ccc(C)cc3)c(C3C(C#N)=C(N)OC4=C3C(=O)CC(C)(C)C4)cc2c1 (stereo not given) | 100 µg/mL (≈ 208 µM) | 500 µg/mL (≈ 1040 µM) | 500 µg/mL (≈ 1040 µM) | 1000 µg/mL (≈ 2080 µM) | 500 µg/mL (≈ 1040 µM) | 100 µg/mL (≈ 208 µM) | 200 µg/mL (≈ 415 µM) | 100 µg/mL (≈ 208 µM)
9 | COC1=CC(=O)C[C@@H](C)[C@]12Oc1c(Cl)c(OC)cc(OC)c1C2=O [GRISEOFULVIN] | – | – | 100 µg/mL (≈ 283 µM) | 500 µg/mL (≈ 1420 µM) | – | – | – | –
10 | CCn1cc(C(=O)O)c(=O)c2cc(F)c(N3CCNCC3)cc21 [NORFLOXACIN] | 10 µg/mL (≈ 31.3 µM) | 100 µg/mL (≈ 313 µM) | – | – | 10 µg/mL (≈ 31.3 µM) | 50 µg/mL (≈ 157 µM) | 10 µg/mL (≈ 31.3 µM) | 10 µg/mL (≈ 31.3 µM)
11 | CC1(C)S[C@@H]2[C@H](NC(=O)[C@H](N)c3ccccc3)C(=O)N2[C@H]1C(=O)O [AMPICILLIN] | 100 µg/mL (≈ 286 µM) | 250 µg/mL (≈ 715 µM) | – | – | 100 µg/mL (≈ 286 µM) | 250 µg/mL (≈ 715 µM) | 100 µg/mL (≈ 286 µM) | 100 µg/mL (≈ 286 µM)
12 | COc1ccc2nc(Oc3ccccc3)c(C3C(C#N)=C(N)OC4=C3C(=O)CC(C)(C)C4)cc2c1 (stereo not given) | 500 µg/mL (≈ 1070 µM) | 500 µg/mL (≈ 1070 µM) | 1000 µg/mL (≈ 2140 µM) | 500 µg/mL (≈ 1070 µM) | 500 µg/mL (≈ 1070 µM) | 100 µg/mL (≈ 214 µM) | 200 µg/mL (≈ 428 µM) | 200 µg/mL (≈ 428 µM)
13 | NYSTATIN | – | – | 100 µg/mL | 100 µg/mL | – | – | – | –
14 | O=C(N[C@H](CO)[C@H](O)c1ccc([N+](=O)[O-])cc1)C(Cl)Cl [CHLORAMPHENICOL] | 50 µg/mL (≈ 155 µM) | 50 µg/mL (≈ 155 µM) | – | – | 50 µg/mL (≈ 155 µM) | 50 µg/mL (≈ 155 µM) | 50 µg/mL (≈ 155 µM) | 50 µg/mL (≈ 155 µM)
